# Assays:
# Type in all cases: cell-based
# OCI-LY3 = experiment: MTT cytotoxicity assay, OCI-LY3; conditions: Homo sapiens, OCI-LY3, Diffuse large B-cell lymphoma (DLBCL), incubation 48 h
# Description: (§1) The MTT assay (Sigma-Aldrich) was used to measure cytotoxic capability of the ROR1 tyrosine kinase inhibitors (ROR1-TKI). Briefly, 2×10^4 cancer cells were incubated in triplicates in 200 μL of RPMI-1640 containing 10% FCS in 96 well plates. ROR1-TKI (dissolved in DMSO), were added to the cells. Cells treated with DMSO were used as negative control. Cells were incubated for 48, 72 or 96 h. An amount of 20 μL MTT solution was added and the cell suspension was incubated for 4 h at 37 degrees C. The reaction was stopped by adding 100 μL MTT solvent (10% SDS in 0.01 M HCl) and was incubated for further 2-4 h. The plate was then read by a microplate reader at 570 nm.
# (§2) Results, in terms of IC50 (μM), are shown in Table 4 for a representative compound of the invention, viz. Example 172.
# HDLM2 [1] = experiment: MTT cytotoxicity assay, HDLM2; conditions: Homo sapiens, HDLM-2, HDLM2, Hodgkin’s Lymphoma (HL), incubation 48 h
# Description: as §1, §2
# HDLM2 [2] = experiment: Flow cytometry Annexin V/PI apoptosis assay, HDLM2; conditions: Homo sapiens, HDLM-2, HDLM2, Hodgkin’s Lymphoma (HL), incubation 48 h
# Description: (§3) Flow Cytometry Annexin V/PI Apoptosis Assay
# (§4) An amount of 1 ml (10^5 cells/mL) of cells were seeded in each well of 6-well plates with and without compounds for 48 h. Cells were collected, washed with PBS, suspended in 100 μL of Annexin-V binding buffer (BD Biosciences) containing FITC-conjugated Annexin-V and PI (BD Biosciences) and incubated at room temperature in the dark for 20 min. After 20 min of incubation, 150 μL Annexin-V binding buffer was added. Viable cells were identified as the double negative Annexin-V and PI population. Samples were analyzed by a FACS Canto II Flow-cytometer (BD Biosciences).
# as §2
# H69 = experiment: Alamar Blue cell viability assay, H69; conditions: Homo sapiens, NCI-H69; H69, Small cell lung cancer (SCLC), alamarBlue, incubation 72 h
# Description: (§5) Alamar Blue Cell Viability Assay
# (§6) Cells were plated 12 hours prior to start of drug treatment, which lasted for 72 hours for all cytotoxicity experiments. Cell viability was estimated by alamarBlue™ Cell Viability Reagent (ThermoFisher, Waltham, Mass.) per manufacturer's instructions.
# as §2
# H211 = experiment: Alamar Blue cell viability assay, H211; conditions: Homo sapiens, NCI-H211; H211, Small cell lung cancer, alamarBlue, incubation 72 h
# Description: as §5, §6, §2
# H1963 = experiment: Alamar Blue cell viability assay, H1963; conditions: Homo sapiens, NCI-H1963; H1963, Small cell lung cancer, alamarBlue, incubation 72 h
# Description: as §5, §6, §2
# H1299 = experiment: MTT cytotoxicity assay, H1299; conditions: Homo sapiens, NCI-H1299, H1299, Non-small cell lung cancer, incubation 72 h
# Description: as §1, §2
# HCC827 = experiment: MTT cytotoxicity assay, HCC827; conditions: Homo sapiens, HCC827, Non-small cell lung cancer, incubation 72 h
# Description: as §1, §2
# H23 = experiment: MTT cytotoxicity assay, H23; conditions: Homo sapiens, NCI-H23, H23, Non-small cell lung cancer, incubation 72 h
# Description: as §1, §2
# SEM cells = experiment: Flow cytometry Annexin V/PI apoptosis assay, SEM; conditions: B-cell acute lymphoblastic leukemia (B-ALL), incubation 48 h
# Description: as §3, §4, §2
# Reh = experiment: MTT cytotoxicity assay, Reh; conditions: Homo sapiens, Non-T-cell non-B-cell-acute lymphoblastic leukemia, incubation 48 h
# Description: as §1, §2
# SupB15 = experiment: Flow cytometry Annexin V/PI apoptosis assay, SupB15; conditions: Homo sapiens, SUP-B15, SupB15, B-cell acute lymphoblastic leukemia (B-ALL), incubation 48 h
# Description: as §3, §4, §2
# KE37 [3] = experiment: MTT cytotoxicity assay, KE37; conditions: Homo sapiens, KE-37, KE37, T-cell acute lymphoblastic leukemia (T-ALL), incubation 48 h
# Description: as §1, §2
# KE37 [4] = experiment: Flow cytometry Annexin V/PI apoptosis assay, KE37; conditions: Homo sapiens, KE-37, KE37, T-cell acute lymphoblastic leukemia (T-ALL), incubation 48 h
# Description: as §3, §4, §2
# HPB [5] = experiment: MTT cytotoxicity assay, HPB; conditions: T-cell acute lymphoblastic leukemia (T-ALL), incubation 48 h
# Description: as §1, §2
# HPB [6] = experiment: Flow cytometry Annexin V/PI apoptosis assay, HPB; conditions: T-cell acute lymphoblastic leukemia (T-ALL), incubation 48 h
# Description: as §3, §4, §2
# SKOV3 = experiment: Flow cytometry Annexin V/PI apoptosis assay, SKOV3; conditions: Homo sapiens, SK-OV-3, SKOV3, Ovarian cancer (OC), incubation 48 h
# Description: as §3, §4, §2
# Caov3 = experiment: Flow cytometry Annexin V/PI apoptosis assay, Caov3; conditions: Homo sapiens, Caov-3, Caov3, Ovarian cancer (OC), incubation 48 h
# Description: as §3, §4, §2
# A2780 = experiment: Flow cytometry Annexin V/PI apoptosis assay, A2780; conditions: Homo sapiens, A2780, Ovarian cancer (OC), incubation 48 h
# Description: as §3, §4, §2
# Granta-519 = experiment: MTT cytotoxicity assay, Granta-519; conditions: Homo sapiens, Granta-519, Mantle Cell Lymphoma (MCL), incubation 96 h
# Description: as §1, §2
# Z138 = experiment: MTT cytotoxicity assay, Z138; conditions: Homo sapiens, Z-138, Z138, Mantle Cell Lymphoma (MCL), incubation 96 h
# Description: as §1, §2
# Mino = experiment: MTT cytotoxicity assay, Mino; conditions: Homo sapiens, Mantle Cell Lymphoma (MCL), incubation 96 h
# Description: as §1, §2
# JeKo1 = experiment: MTT cytotoxicity assay, JeKo1; conditions: Homo sapiens, JeKo-1, JeKo1, Mantle Cell Lymphoma (MCL), incubation 96 h
# Description: as §1, §2
# JVM2 = experiment: MTT cytotoxicity assay, JVM2; conditions: Homo sapiens, JVM-2, JVM2, Mantle Cell Lymphoma (MCL), incubation 96 h
# Description: as §1, §2
# AMO-1 = experiment: MTT cytotoxicity assay, AMO-1; conditions: Homo sapiens, AMO1, AMO-1, Multiple Myeloma (MM), incubation 96 h
# Description: as §1, §2
# MIA PaCa-2 = experiment: MTT cytotoxicity assay, MIA PaCa-2; conditions: Homo sapiens, MIA PaCa-2, Pancreatic cancer, incubation 48 h
# Description: as §1, §2
# 232-B4 = experiment: MTT cytotoxicity assay, 232-B4; conditions: 232-B4, CLL cell line, ExPASy Accession No: CVCL_Y436, MTT, incubation 48 h
# Description: as §1, §2
# MEC-2 = experiment: MTT cytotoxicity assay, MEC-2; conditions: MEC2, MEC-2, CLL cell line, DSMZ bank, (ACC 500), incubation 48 h
# Description: as §1, §2
structure (smiles),measurement,setting,value
"CCOCCN1CCN(c2ccc(-c3nc4c(NC5CCN(CC)CC5)c(Br)cnc4[nH]3)cc2)CC1 [Example 172, 6-Bromo-2-{4-[4-(2-ethoxyethyl)piperazin-1-yl]phenyl}-N-(1-ethylpiperidin-4-yl)-3H-imidazo[4,5-b]pyridin-7-amine]",IC50,OCI-LY3,50 nM
same,IC50,HDLM2 [1],50 nM
same,IC50,HDLM2 [2],100 nM
same,IC50,H69,250 nM
same,IC50,H211,180 nM
same,IC50,H1963,200 nM
same,IC50,H1299,250 nM
same,IC50,HCC827,100 nM
same,IC50,H23,150 nM
same,IC50,SEM cells,31 nM
same,IC50,Reh,50 nM
same,IC50,SupB15,66 nM
same,IC50,KE37 [3],200 nM
same,IC50,KE37 [4],180 nM
same,IC50,HPB [5],100 nM
same,IC50,HPB [6],140 nM
same,IC50,SKOV3,610 nM
same,IC50,Caov3,270 nM
same,IC50,A2780,270 nM
same,IC50,Granta-519,250 nM
same,IC50,Z138,250 nM
same,IC50,Mino,50 nM
same,IC50,JeKo1,75 nM
same,IC50,JVM2,200 nM
same,IC50,AMO-1,50 nM
same,IC50,MIA PaCa-2,100 nM
same,IC50,232-B4,200 nM
same,IC50,MEC-2,110 nM

# Reference: patent publication US11660303B2, “2-phenylimidazo[4,5-b]pyridin-7-amine derivates useful as inhibitors of mammalian tyrosine kinase ROR1 activity” (KANCERA AB, priority 2016, dated 2023)
